± gives the standard deviation of the averaged measurements.
Columns and labels:
Experiment in all cases: level (log10 ratio to DMSO vehicle control); higher = higher biomarker level / cell amount than vehicle control
Conditions in all cases: in DMSO
Perfluorodecanoic acid = compound: O=C(O)C(F)(F)C(F)(F)C(F)(F)C(F)(F)C(F)(F)C(F)(F)C(F)(F)C(F)(F)C(F)(F)F [Perfluorodecanoic acid]
Procedure: (§1)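 BioMAP Diversity Plus panel of 12 human primary cell co-culture systems (3C, 4H, LPS, SAg, BT, BF4T, BE3C, CASM3C, HDF3CGF, KF3CT, MyoF, Mphg). Compounds were added 1 h before stimulation and left for 24 h (MyoF 48 h; BT 72 h for soluble read-outs or 6 d for IgG). Biomarkers were read by ELISA, cytotoxicity by SRB, PBMC viability and proliferation by Alamar Blue. Each well value was divided by the mean of 8 DMSO control wells on the same plate and log10 transformed; duplicate blinded samples were tested at 4 concentrations.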

[1] = compound: COC(=O)CCC(F)(F)C(F)(F)C(F)(F)C(F)(F)F [Methyl 2H,2H,3H,3H-perfluoroheptanoate]
Procedure: as §1

[2] = compound: CCN(CCO)S(=O)(=O)C(F)(F)C(F)(F)C(F)(F)C(F)(F)C(F)(F)C(F)(F)C(F)(F)C(F)(F)F [N-Ethyl-N-(2-hydroxyethyl)perfluorooctanesulfonamide]
Procedure: as §1

[3] = compound: OCC(F)(F)OC(F)(F)C(F)(F)OC(F)(F)CO [1H,1H,8H,8H-Perfluoro-3,6-dioxaoctane-1,8-diol]
Procedure: as §1

Heptafluorobutyramide = compound: NC(=O)C(F)(F)C(F)(F)C(F)(F)F [Heptafluorobutyramide]
Procedure: as §1

Perfluoropentanoic acid = compound: O=C(O)C(F)(F)C(F)(F)C(F)(F)C(F)(F)F [Perfluoropentanoic acid]
Procedure: as §1

[4] = compound: O=C(O)C(F)(F)OC(F)(F)C(F)(F)OC(F)(F)C(=O)O [Perfluoro-3,6-dioxaoctane-1,8-dioic acid]
Procedure: as §1

| Test System | level (log10) (Perfluorodecanoic acid; 6700 nM) | level (log10) (Perfluorodecanoic acid; 20000 nM) | level (log10) ([1]; 6700 nM) | level (log10) ([1]; 20000 nM) | level (log10) ([1]; 60000 nM) | level (log10) ([2]; 6700 nM) | level (log10) ([2]; 20000 nM) | level (log10) ([3]; 6700 nM) | level (log10) ([3]; 20000 nM) | level (log10) ([3]; 60000 nM) | level (log10) (Heptafluorobutyramide; 6700 nM) | level (log10) (Heptafluorobutyramide; 20000 nM) | level (log10) (Heptafluorobutyramide; 60000 nM) | level (log10) (Perfluoropentanoic acid; 6700 nM) | level (log10) (Perfluoropentanoic acid; 20000 nM) | level (log10) (Perfluoropentanoic acid; 60000 nM) | level (log10) ([4]; 6700 nM) | level (log10) ([4]; 20000 nM) | level (log10) ([4]; 60000 nM) |
| --- | --- | --- | --- | --- | --- | --- | --- | --- | --- | --- | --- | --- | --- | --- | --- | --- | --- | --- | --- |
| BE3C:CXCL8/IL-8 | -0.0545 ± 0.069 | -0.577 ± 0.023 | 0.032 ± 0.044 | 0.002 ± 0.057 | 0.0295 ± 0.053 | -0.0825 ± 0.013 | -0.218 ± 0.056 | 0.0075 ± 0.005 | 0.001 ± 0.041 | -0.012 ± 0.045 | 0.038 ± 0.0014 | 0.0365 ± 0.012 | 0.038 ± 0.051 | -0.023 ± 0.0042 | -0.036 ± 0.017 | -0.0085 ± 0.057 | -0.0485 ± 0.0092 | -0.0355 ± 0.0078 | 0.007 ± 0.05 |
| BF4T:CXCL8/IL-8 | 0.0395 ± 0.012 | -0.293 ± 0.076 | 0.018 ± 0.018 | 0.0065 ± 0.0078 | 0.013 ± 0.037 | -0.015 ± 0.014 | -0.004 ± 0.0014 | 0.0225 ± 0.029 | -0.0005 ± 0.029 | 0 ± 0.023 | 0.032 ± 0.061 | 0.024 ± 0.057 | 0.0155 ± 0.012 | -0.0345 ± 0.013 | -0.0295 ± 0.013 | -0.0105 ± 0.035 | -0.011 ± 0.023 | -0.0305 ± 0.0064 | -0.0025 ± 0.037 |
| LPS:M-CSF | -0.0015 ± 0.015 | -0.0045 ± 0.018 | -0.0005 ± 0.0035 | 0.002 ± 0.011 | 0.0105 ± 0.043 | 0.0495 ± 0.033 | 0.104 ± 0.041 | -0.015 ± 0.0042 | -0.018 ± 0.031 | 0.007 ± 0.067 | -0.003 ± 0.016 | -0.006 ± 0.0014 | -0.006 ± 0.0057 | -0.031 ± 0.024 | -0.061 ± 0.11 | -0.0385 ± 0.11 | 0.0035 ± 0.005 | -0.002 ± 0.0028 | 0.021 |
| BT:sIL-6 | -0.029 ± 0.071 | 0.077 ± 0.058 | 0.0555 ± 0.035 | 0.007 ± 0.018 | -0.033 ± 0.038 | 0.078 ± 0.0014 | -0.049 ± 0.054 | 0.057 ± 0.0099 | 0.0215 ± 0.021 | -0.0445 ± 0.026 | 0.0565 ± 0.0078 | -0.013 ± 0.0071 | -0.0215 ± 0.046 | -0.0355 ± 0.1 | 0.01 ± 0.051 | 0.022 ± 0.04 | 0.018 ± 0.013 | -0.007 ± 0.0042 | -0.0375 ± 0.00071 |
| BF4T:CCL2/MCP-1 | -0.043 ± 0.03 | -0.484 ± 0.11 | -0.0105 ± 0.019 | -0.0245 ± 0.039 | -0.002 ± 0.0085 | -0.004 ± 0.013 | -0.022 ± 0.0028 | 0.015 ± 0.028 | 0.012 ± 0.027 | 0.0085 ± 0.00071 | 0.008 ± 0.058 | -0.011 ± 0.04 | 0.014 ± 0.047 | 0.004 ± 0.047 | -0.0035 ± 0.052 | -0.0275 ± 0.025 | 0.018 ± 0.027 | 0.0135 ± 0.053 | 0.0265 ± 0.043 |
| 3C:CXCL9/MIG | 0.002 | 0.0005 ± 0.0064 | -0.011 ± 0.011 | -0.0115 ± 0.012 | -0.0055 ± 0.015 | -0.013 ± 0.0085 | -0.006 ± 0.0085 | -0.0025 ± 0.005 | -0.004 ± 0.0071 | 0.0015 ± 0.011 | -0.004 ± 0.016 | -0.0115 ± 0.0064 | -0.0065 ± 0.0078 | -0.0085 ± 0.018 | -0.0125 ± 0.03 | 0.0095 ± 0.028 | 0.003 ± 0.0057 | -0.009 ± 0.0028 | 0.0095 ± 0.005 |
| BE3C:CXCL9/MIG | -0.003 ± 0.0042 | -0.715 ± 0.9 | -0.0025 ± 0.016 | -0.007 ± 0.0014 | -0.0095 ± 0.00071 | -0.006 ± 0.0028 | -0.0285 ± 0.0035 | 0.0015 ± 0.0064 | -0.0025 ± 0.0035 | 0.0035 ± 0.005 | 0.002 ± 0.0014 | 0.0015 ± 0.0092 | -0.006 ± 0.0028 | -0.0035 ± 0.0092 | -0.012 ± 0.013 | 0.007 ± 0.018 | 0.0015 ± 0.0064 | -0.003 ± 0.0099 | 0.0015 ± 0.0021 |
| BF4T:MMP-9 | -0.025 ± 0.0057 | -0.282 ± 0.023 | 0.007 ± 0.034 | 0.0165 ± 0.047 | 0.012 ± 0.055 | -0.012 ± 0.014 | -0.032 ± 0.0014 | -0.026 ± 0.047 | -0.0145 ± 0.025 | 0.01 ± 0.037 | 0.014 ± 0.017 | 0.0035 ± 0.039 | 0.011 ± 0.04 | -0.0115 ± 0.0064 | -0.0115 ± 0.019 | -0.0005 ± 0.035 | -0.021 ± 0.0057 | -0.0135 ± 0.005 | 0.02 ± 0.017 |
| 4H:CD87/uPAR | 0.0115 ± 0.021 | 0.0135 ± 0.0092 | 0.0005 ± 0.019 | 0.021 ± 0.042 | 0.0065 ± 0.033 | -0.037 ± 0.037 | -0.088 ± 0.024 | 0.015 ± 0.044 | 0.0265 ± 0.0035 | 0.0065 ± 0.044 | 0.048 ± 0.014 | 0.031 ± 0.0014 | 0.0315 ± 0.0092 | -0.0435 ± 0.035 | -0.0355 ± 0.005 | -0.055 ± 0.0028 | -0.0095 ± 0.032 | -0.009 ± 0.037 | 0.001 ± 0.011 |
| SAg:SRB | -0.0035 ± 0.012 | -0.008 ± 0.013 | 0.008 ± 0.027 | 0.0005 ± 0.0064 | -0.0085 ± 0.0092 | -0.046 ± 0.0057 | -0.118 ± 0.024 | -0.0115 ± 0.012 | -0.0195 ± 0.0092 | -0.0195 ± 0.016 | -0.018 ± 0.025 | -0.0125 ± 0.011 | -0.0095 ± 0.018 | -0.007 ± 0.0099 | -0.0035 ± 0.00071 | 0.0055 ± 0.015 | 0.007 ± 0.013 | 0.0005 ± 0.0064 | 0.0045 ± 0.00071 |
| LPS:CCL2/MCP-1 | -0.0005 ± 0.012 | -0.0015 ± 0.0064 | -0.011 ± 0.013 | -0.013 ± 0.0071 | -0.0065 ± 0.00071 | -0.017 ± 0.025 | -0.0535 ± 0.012 | -0.002 | -0.015 ± 0.0071 | 0.008 ± 0.0057 | 0.0255 ± 0.0035 | 0.0105 ± 0.0078 | 0.0275 ± 0.057 | 0.0065 ± 0.0064 | -0.0065 ± 0.00071 | 0.0225 ± 0.039 | -0.02 ± 0.023 | -0.011 ± 0.021 | 0.0075 ± 0.036 |
| BT:sIL-17F | 0.019 ± 0.016 | 0.0345 ± 0.13 | 0.014 ± 0.12 | -0.0295 ± 0.052 | -0.024 ± 0.068 | -0.0225 ± 0.029 | -0.299 ± 0.037 | 0.045 | -0.0205 ± 0.023 | -0.137 ± 0.096 | -0.001 ± 0.035 | -0.0165 ± 0.018 | -0.006 ± 0.03 | -0.06 ± 0.027 | -0.0325 ± 0.044 | 0.0375 ± 0.19 | -0.146 ± 0.0057 | -0.102 ± 0.057 | -0.0675 ± 0.022 |
| 3C:HLA-DR | -0.0035 ± 0.0021 | -0.006 ± 0.013 | -0.026 ± 0.0071 | 0.03 ± 0.027 | 0.0085 ± 0.032 | 0.013 ± 0.025 | -0.0625 ± 0.016 | -0.0185 ± 0.012 | -0.0095 ± 0.016 | 0.0005 ± 0.036 | 0.005 ± 0.0099 | 0.008 ± 0.0057 | -0.007 ± 0.0028 | -0.0075 ± 0.0035 | 0.0015 ± 0.021 | 0.018 ± 0.037 | 0.008 ± 0.018 | -0.037 ± 0.013 | -0.0065 ± 0.012 |
| SAg:CXCL9/MIG | -0.006 ± 0.011 | -0.0025 ± 0.015 | -0.0195 ± 0.012 | -0.0095 ± 0.0021 | -0.0065 ± 0.018 | -0.0135 ± 0.005 | -0.0075 ± 0.013 | 0.0075 ± 0.0021 | 0 ± 0.0014 | 0.0065 ± 0.0092 | 0.0075 ± 0.0021 | -0.0025 ± 0.012 | 0.0005 ± 0.013 | -0.0115 ± 0.0078 | -0.014 ± 0.0099 | 0.004 ± 0.021 | -0.0065 ± 0.005 | 0.004 ± 0.0057 | -0.001 ± 0.013 |
| LPS:CD142/Tissue Factor | 0.018 ± 0.0085 | -0.011 ± 0.0028 | 0.0015 ± 0.067 | 0.0175 ± 0.054 | -0.019 ± 0.0085 | 0.139 ± 0.038 | 0.312 ± 0.037 | -0.006 ± 0.014 | -0.0155 ± 0.021 | -0.0135 ± 0.0035 | -0.0035 ± 0.028 | 0.002 ± 0.061 | -0.0245 ± 0.047 | 0.006 ± 0.0099 | -0.007 ± 0.051 | 0.031 ± 0.099 | 0.034 ± 0.038 | 0.0025 ± 0.016 | 0.015 ± 0.061 |

— the supplement of paper PMC10331698
